Experimental data taken from US20130266636A1, “METHODS FOR BLOCKING CELL PROLIFERATION AND TREATING DISEASES AND CONDITIONS RESPONSIVE TO CELL GROWTH INHIBITION” (THE REGENTS OF THE UNIVERSITY OF CALIFORNIA, priority 2010, published 2013).

Legend:
Assay in all cases: NCI-60 panel growth inhibition
Assay type in all cases: cell-based
A498 = conditions: Homo sapiens, Renal Cancer, mutated RAS No, mutated BRAF No
Text: (§1) Table 1 summarizes KG5's effect in 60 NCI cancer cell lines: the NCI-60 panel showing the half maximal growth inhibitory concentration of KG5 and the RAS and BRAF status in 60 human cancer cell lines.

A549/ATCC = conditions: Homo sapiens, NSC Lung Cancer, mutated RAS Yes, mutated BRAF No
Text: as §1

ACHN = conditions: Homo sapiens, Renal Cancer, mutated RAS No, mutated BRAF No
Text: as §1

BT-549 = conditions: Homo sapiens, Breast Cancer, mutated RAS No, mutated BRAF No
Text: as §1

CAKI-1 = conditions: Homo sapiens, Renal Cancer, mutated RAS No, mutated BRAF No
Text: as §1

CCRF-CEM = conditions: Homo sapiens, Leukemia, mutated RAS Yes, mutated BRAF No
Text: as §1

COLO 205 = conditions: Homo sapiens, Colon Cancer, mutated RAS Yes, mutated BRAF No
Text: as §1

DU-145 = conditions: Homo sapiens, Prostate Cancer, mutated RAS No, mutated BRAF No
Text: as §1

EKVX = conditions: Homo sapiens, NSC Lung Cancer, mutated RAS No, mutated BRAF No
Text: as §1

HOP-62 = conditions: Homo sapiens, NSC Lung Cancer, mutated RAS Yes, mutated BRAF No
Text: as §1

HT29 = conditions: Homo sapiens, HT-29; Colon Cancer; mutated RAS No; mutated BRAF Yes
Text: as §1

IGROV1 = conditions: Homo sapiens, IGROV-1; Ovarian Cancer; mutated RAS No; mutated BRAF No
Text: as §1

K-562 = conditions: Homo sapiens, K562; Leukemia; mutated RAS No; mutated BRAF No
Text: as §1

KM12 = conditions: Homo sapiens, Colon Cancer, mutated RAS No, mutated BRAF No
Text: as §1

LOX IMVI = conditions: Homo sapiens, Melanoma, mutated RAS No, mutated BRAF Yes
Text: as §1

M14 = conditions: Homo sapiens, Melanoma, mutated RAS No, mutated BRAF Yes
Text: as §1

MDA-MB-231/ATCC = conditions: Homo sapiens, Breast Cancer, mutated RAS Yes, mutated BRAF Yes
Text: as §1

MDA-MB-468 = conditions: Homo sapiens, Breast Cancer, mutated RAS No, mutated BRAF No
Text: as §1

MOLT-4 = conditions: Homo sapiens, Leukemia, mutated RAS Yes, mutated BRAF No
Text: as §1

NCI-H226 = conditions: Homo sapiens, NSC Lung Cancer, mutated RAS No, mutated BRAF No
Text: as §1

NCI-H23 = conditions: Homo sapiens, NSC Lung Cancer, mutated RAS Yes, mutated BRAF No
Text: as §1

NCI-H322M = conditions: Homo sapiens, NSC Lung Cancer, mutated RAS No, mutated BRAF No
Text: as §1

NCI-H460 = conditions: Homo sapiens, NSC Lung Cancer, mutated RAS Yes, mutated BRAF No
Text: as §1

OVCAR-3 = conditions: Homo sapiens, Ovarian Cancer, mutated RAS No, mutated BRAF No
Text: as §1

OVCAR-4 = conditions: Homo sapiens, Ovarian Cancer, mutated RAS No, mutated BRAF No
Text: as §1

OVCAR-5 = conditions: Homo sapiens, Ovarian Cancer, mutated RAS Yes, mutated BRAF No
Text: as §1

OVCAR-8 = conditions: Homo sapiens, Ovarian Cancer, mutated RAS No, mutated BRAF No
Text: as §1

PC-3 = conditions: Homo sapiens, Prostate Cancer, mutated RAS No, mutated BRAF No
Text: as §1

RXF 393 = conditions: Homo sapiens, Renal Cancer, mutated RAS No, mutated BRAF No
Text: as §1

SF-268 = conditions: Homo sapiens, CNS Cancer, mutated RAS No, mutated BRAF No
Text: as §1

SF-295 = conditions: Homo sapiens, CNS Cancer, mutated RAS No, mutated BRAF No
Text: as §1

SF-539 = conditions: Homo sapiens, CNS Cancer, mutated RAS No, mutated BRAF No
Text: as §1

SK-MEL-2 = conditions: Homo sapiens, Melanoma, mutated RAS Yes, mutated BRAF No
Text: as §1

SK-MEL-5 = conditions: Homo sapiens, Melanoma, mutated RAS No, mutated BRAF Yes
Text: as §1

SK-OV-3 = conditions: Homo sapiens, Ovarian Cancer, mutated RAS No, mutated BRAF No
Text: as §1

SN12C = conditions: Homo sapiens, Renal Cancer, mutated RAS No, mutated BRAF No
Text: as §1

SNB-75 = conditions: Homo sapiens, CNS Cancer, mutated RAS No, mutated BRAF No
Text: as §1

SW-620 = conditions: Homo sapiens, Colon Cancer, mutated RAS No, mutated BRAF No
Text: as §1

T-47D = conditions: Homo sapiens, T47D; Breast Cancer; mutated RAS Yes; mutated BRAF No
Text: as §1

TK-10 = conditions: Homo sapiens, Renal Cancer, mutated RAS No, mutated BRAF No
Text: as §1

U251 = conditions: Homo sapiens, U-251; CNS Cancer; mutated RAS No; mutated BRAF No
Text: as §1

UACC-257 = conditions: Homo sapiens, Melanoma, mutated RAS No, mutated BRAF Yes
Text: as §1

UACC-62 = conditions: Homo sapiens, Melanoma, mutated RAS No, mutated BRAF Yes
Text: as §1

CSc1nc(N)cc(Oc2ccc(-c3nnc(Nc4cccc(C(F)(F)F)c4)[nH]3)cc2)n1 [KG5]
GI50 (A498): 468 nM | GI50 (A549/ATCC): 501 nM | GI50 (ACHN): 851 nM | GI50 (BT-549): 708 nM | GI50 (CAKI-1): 417 nM | GI50 (CCRF-CEM): 380 nM | GI50 (COLO 205): 407 nM | GI50 (DU-145): 457 nM | GI50 (EKVX): 501 nM | GI50 (HOP-62): 589 nM | GI50 (HT29): 363 nM | GI50 (IGROV1): 447 nM | GI50 (K-562): 513 nM | GI50 (KM12): 468 nM | GI50 (LOX IMVI): 851 nM | GI50 (M14): 347 nM | GI50 (MDA-MB-231/ATCC): 1480 nM | GI50 (MDA-MB-468): 191 nM | GI50 (MOLT-4): 912 nM | GI50 (NCI-H226): 1780 nM | GI50 (NCI-H23): 525 nM | GI50 (NCI-H322M): 525 nM | GI50 (NCI-H460): 363 nM | GI50 (OVCAR-3): 251 nM | GI50 (OVCAR-4): 575 nM | GI50 (OVCAR-5): 1550 nM | GI50 (OVCAR-8): 479 nM | GI50 (PC-3): 282 nM | GI50 (RXF 393): 166 nM | GI50 (SF-268): 912 nM | GI50 (SF-295): 427 nM | GI50 (SF-539): 347 nM | GI50 (SK-MEL-2): 589 nM | GI50 (SK-MEL-5): 389 nM | GI50 (SK-OV-3): 562 nM | GI50 (SN12C): 912 nM | GI50 (SNB-75): 245 nM | GI50 (SW-620): 617 nM | GI50 (T-47D): 347 nM | GI50 (TK-10): 692 nM | GI50 (U251): 468 nM | GI50 (UACC-257): 407 nM | GI50 (UACC-62): 501 nM
